IC50 and AC50 data for 4 compounds are collected here from ChEMBL document CHEMBL1201862, “PubChem BioAssay data set” (2004).

Test [1] concerns the target G-protein coupled receptor 183 (Homo sapiens, UniProt P32249). Kind of test: SAR confirmation of small molecule antagonists of the EBI2 receptor via a luminescent beta-arrestin assa. Type of test: functional.
The nature of test [2]: inducers of E-selectin gene expression, confirmation, orthogonal assay for E-selectin inducer project, cell-based, HUVEC, RT-qPCR, dry powder (AID 1117270). Format: functional. (In general: Quantitative PCR measures a nucleic acid by following its amplification.)
Another test deals with T1, Protein skinhead-1 (Caenorhabditis elegans, UniProt P34707).
T1 sequence (P34707 whole entry): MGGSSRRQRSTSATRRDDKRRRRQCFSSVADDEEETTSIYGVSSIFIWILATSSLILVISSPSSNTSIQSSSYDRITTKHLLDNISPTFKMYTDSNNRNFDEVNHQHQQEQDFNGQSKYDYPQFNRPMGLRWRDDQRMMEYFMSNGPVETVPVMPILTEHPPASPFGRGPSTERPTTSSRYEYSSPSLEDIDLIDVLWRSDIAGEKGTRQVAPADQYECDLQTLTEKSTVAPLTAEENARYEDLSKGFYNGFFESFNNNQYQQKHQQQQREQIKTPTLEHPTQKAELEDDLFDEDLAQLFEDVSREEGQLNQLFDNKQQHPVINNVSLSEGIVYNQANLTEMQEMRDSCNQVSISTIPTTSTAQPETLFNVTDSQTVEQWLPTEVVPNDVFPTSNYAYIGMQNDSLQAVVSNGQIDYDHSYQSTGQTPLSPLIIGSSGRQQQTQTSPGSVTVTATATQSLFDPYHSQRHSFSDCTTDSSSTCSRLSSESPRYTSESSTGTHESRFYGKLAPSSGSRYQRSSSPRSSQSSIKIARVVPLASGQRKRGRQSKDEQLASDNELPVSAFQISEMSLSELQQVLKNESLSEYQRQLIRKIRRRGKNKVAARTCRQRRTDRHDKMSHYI
Format: functional.

The target of another test is Phospholipase D2 (Homo sapiens, UniProt O14939). Kind of test: PLD2 Cellular Concentration Response Study. Type of test: functional.
Chain of Phospholipase D2 (O14939 whole entry): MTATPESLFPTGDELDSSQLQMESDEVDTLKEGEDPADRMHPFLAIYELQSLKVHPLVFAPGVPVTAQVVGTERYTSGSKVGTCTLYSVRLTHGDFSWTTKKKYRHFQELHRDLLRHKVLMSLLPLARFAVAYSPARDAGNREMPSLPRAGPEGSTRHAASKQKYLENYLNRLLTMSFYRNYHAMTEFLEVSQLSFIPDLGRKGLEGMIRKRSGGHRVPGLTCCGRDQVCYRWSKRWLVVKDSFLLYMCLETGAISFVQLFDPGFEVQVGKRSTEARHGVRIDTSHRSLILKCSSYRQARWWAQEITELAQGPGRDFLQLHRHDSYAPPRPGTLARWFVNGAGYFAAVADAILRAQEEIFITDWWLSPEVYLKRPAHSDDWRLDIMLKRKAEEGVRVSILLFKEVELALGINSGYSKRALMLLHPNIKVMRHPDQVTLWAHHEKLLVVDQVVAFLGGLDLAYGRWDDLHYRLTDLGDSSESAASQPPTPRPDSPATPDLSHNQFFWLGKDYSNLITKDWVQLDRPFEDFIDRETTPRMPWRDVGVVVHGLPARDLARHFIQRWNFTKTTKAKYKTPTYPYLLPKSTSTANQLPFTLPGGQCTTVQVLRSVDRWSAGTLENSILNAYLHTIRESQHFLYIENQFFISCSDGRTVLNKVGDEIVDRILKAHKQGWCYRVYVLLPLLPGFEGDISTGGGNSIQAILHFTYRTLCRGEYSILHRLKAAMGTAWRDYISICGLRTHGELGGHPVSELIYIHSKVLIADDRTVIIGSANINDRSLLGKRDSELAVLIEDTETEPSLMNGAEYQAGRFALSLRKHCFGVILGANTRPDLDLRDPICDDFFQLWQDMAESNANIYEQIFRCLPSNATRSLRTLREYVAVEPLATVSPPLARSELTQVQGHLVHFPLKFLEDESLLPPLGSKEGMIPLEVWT
A further test has as its target T2, Phospholipase D1 (Homo sapiens, UniProt Q13393).
T2 sequence (Q13393 whole entry): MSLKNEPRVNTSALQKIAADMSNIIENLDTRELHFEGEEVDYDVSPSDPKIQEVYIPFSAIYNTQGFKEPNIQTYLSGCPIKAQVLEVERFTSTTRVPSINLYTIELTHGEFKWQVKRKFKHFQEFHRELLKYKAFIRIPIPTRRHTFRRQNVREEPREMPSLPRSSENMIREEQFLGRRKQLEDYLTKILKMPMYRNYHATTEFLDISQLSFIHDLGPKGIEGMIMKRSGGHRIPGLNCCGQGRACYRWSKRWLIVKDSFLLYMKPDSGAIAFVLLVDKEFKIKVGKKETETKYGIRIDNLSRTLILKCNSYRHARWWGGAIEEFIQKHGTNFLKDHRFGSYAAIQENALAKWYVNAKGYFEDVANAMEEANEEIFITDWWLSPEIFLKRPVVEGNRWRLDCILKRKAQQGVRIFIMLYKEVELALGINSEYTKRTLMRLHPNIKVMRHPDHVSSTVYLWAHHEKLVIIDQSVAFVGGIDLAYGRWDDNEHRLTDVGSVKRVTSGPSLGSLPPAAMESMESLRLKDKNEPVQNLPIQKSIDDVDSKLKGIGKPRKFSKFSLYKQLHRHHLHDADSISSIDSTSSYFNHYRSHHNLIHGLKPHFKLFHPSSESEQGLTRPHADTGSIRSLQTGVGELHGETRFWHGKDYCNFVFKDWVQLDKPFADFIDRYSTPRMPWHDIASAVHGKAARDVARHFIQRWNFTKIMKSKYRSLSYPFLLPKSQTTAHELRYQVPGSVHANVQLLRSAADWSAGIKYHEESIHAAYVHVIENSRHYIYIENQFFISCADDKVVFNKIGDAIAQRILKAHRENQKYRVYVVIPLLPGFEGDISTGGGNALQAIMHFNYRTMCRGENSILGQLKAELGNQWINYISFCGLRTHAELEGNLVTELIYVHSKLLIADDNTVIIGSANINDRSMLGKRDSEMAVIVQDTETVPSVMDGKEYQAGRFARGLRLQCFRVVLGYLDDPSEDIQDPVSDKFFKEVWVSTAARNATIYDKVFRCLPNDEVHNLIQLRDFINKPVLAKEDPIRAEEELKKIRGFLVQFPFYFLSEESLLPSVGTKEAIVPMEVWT
Kind of test: PLD1 Cellular Concentration Response Study. Format: functional.

The nature of test [3]: Glucagon-like peptide 1 release potency, NCI-H716 cell line, dose-response, half-maximal inhibitory concentration (AID 1117344). Format: functional, cell-based.
A short description of test [4]: Dose-response inhibition of insulin secretion in a rat insulinoma line at 5 mM glucose (AID 1117331). As to conditions: INS-1E. Format: functional, cell-based.
Test [5] is described as follows: half-maximal inhibitory concentration for glucagon-like peptide-1 release, STC-1 cell line, dose-response (AID 1117345). Type of test: functional, cell-based.

Molecules are shown by their SMILES. Activity calls are given as the source filed them.

Chain of G-protein coupled receptor 183 (P32249 whole entry): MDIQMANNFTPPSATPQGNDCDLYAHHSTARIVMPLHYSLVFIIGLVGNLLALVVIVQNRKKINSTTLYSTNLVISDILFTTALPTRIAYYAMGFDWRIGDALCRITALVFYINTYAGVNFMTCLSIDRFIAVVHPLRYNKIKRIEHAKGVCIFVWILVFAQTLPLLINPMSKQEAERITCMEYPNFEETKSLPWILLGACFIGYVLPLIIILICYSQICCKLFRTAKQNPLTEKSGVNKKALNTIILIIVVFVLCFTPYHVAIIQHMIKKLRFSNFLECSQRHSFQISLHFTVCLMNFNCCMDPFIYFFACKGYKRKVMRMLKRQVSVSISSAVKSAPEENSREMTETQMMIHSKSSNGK

The IC50 is the concentration that gives 50% inhibition. `O=C(/C=C/c1ccc(Cl)c(Cl)c1)N1CCN(C(=O)c2ccc(Cl)cc2)CC1`: the IC50 in test [1] is 0.00117 µM (active).

For orientation: AC50 means the concentration at which the activity in the assay is half-maximal. Take `Cc1cccc(NC(=O)NCc2ccc3c(c2)cc(C)n3C)c1`: in test [2], the AC50 was 0.306 µM (active). The IC50 at Protein skinhead-1 is > 100 µM (inactive).

For `O=C(NCCN1CCC2(CC1)C(=O)NCN2Cc1cccnc1)c1ccc(Cl)c(Cl)c1`, the results for the IC50 on Phospholipase D2 and on Phospholipase D1 were 1.24 µM (active) and 20 µM (active), respectively.

Take `NC(=O)C1(N2CCCCC2)CCN(CCCN2c3ccccc3CCc3ccc(Cl)cc32)CC1` [CLOCAPRAMINE]: the IC50 in test [3] was 18.3 µM (inactive); in test [4], 10.1 µM (inactive); in test [5], > 40 µM (inactive).
